The text below walks through data of PMC8068361, “Design and Synthesis of a Novel PLK1 Inhibitor Scaffold Using a Hybridized 3D-QSAR Model” (International Journal of Molecular Sciences, 2021).

SMILES strings stand for the structures. Like-named read-outs stand apart in the source and are kept apart here.

What is called IC50 is the concentration that gives 50% inhibition.

Assay [1] concerns the target T1, PLK1(h) (Homo sapiens, UniProt P53350).
T1 construct: purchased Reaction Biology Corp
Description: PLK1 kinase IC50, Reaction Biology IC50 Profiler Express, 33P-ATP radiometric. The conditions noted are these: enzymatic; ATP 10 μM, casein substrate. It counts as biochemical.

Assay [2] has as its target T2, PLK2 (Homo sapiens, UniProt Q9NYY3).
T2 construct: purchased Reaction Biology Corp
As to the kind of experiment: Kinase panel screen (Kinase HotSpot), single dose 10 µM: PLK2. The class given is biochemical. The procedure: (§1) Assay protocol: In a final reaction volume of 25 μL, substrate[Casein], 1 μM, ATP 10 μM, PLK1(h) (5–10 mU) is incubated with 25 mM Tris pH 7.5, 0.02 mM EGTA, 0.66 mg/mL myelin basic protein, 10 mM Mg acetate, and [^33P-ATP] (specific activity approx. 500 cpm/pmol, concentration as required). The reaction is initiated by addition of the Mg-ATP mix. After incubation for 40 min at room temperature, the reaction is stopped by addition of 5 μL of a 3% phosphoric acid solution. […] The 30 selected protein kinases were ABL1, AKT1, ALK, Aurora A, AXL, AXL (R499C), BRAF (V599E), BTK, c-MER, c-MET, c-Src, CAMKK1, CDK1/cyclin A, EGFR, ERK1, FGFR3, FYN, IGF1R, JAK3, KDR/VEGFR2, LCK, LYN, MEK1, PKA, PLK1, PLK2, PLK3, PLK4/SAK, SYK, and TYRO3/SKY4.

Assay [3] concerns the target T3, PLK1 (Homo sapiens, UniProt P53350).
T3 construct: purchased Reaction Biology Corp
The arrangement: method as in ref 18 (a number printed in a supplementary file, which may have a reference list of its own: not looked up in the article's list). Particulars: Table S1, Plk1, cited from earlier work; for Activity pIC50: pIC50 = −log IC50.

Assay [4] addresses T3, PLK1. Description: Kinase panel screen (Kinase HotSpot), single dose 10 µM: PLK1. The class given is biochemical. The conditions noted are these: duplicate, read-out: inhibitory activity against PLK1. The procedure: as §1
Assay [5] relates to other protein kinases. As to the kind of experiment: Kinase panel screen (Kinase HotSpot), single dose 10 µM: other kinases of the 30-kinase panel. The class given is biochemical. The procedure: as §1
Assay [6] has as its target T4, PLK3 (Homo sapiens, UniProt Q9H4B4).
T4 construct: purchased Reaction Biology Corp
As to the kind of experiment: Kinase panel screen (Kinase HotSpot), single dose 10 µM: PLK3. It counts as biochemical. How it is done:
as §1

Assay [7] deals with T3, PLK1. The conditions noted are these: in words; cited from earlier work.
Assay [8] addresses T3, PLK1. The arrangement: method as in ref 17 (a number printed in a supplementary file, which may have a reference list of its own: not looked up in the article's list). Particulars: Table S2, Plk1, cited from earlier work.

T3 sequence (P53350 whole entry): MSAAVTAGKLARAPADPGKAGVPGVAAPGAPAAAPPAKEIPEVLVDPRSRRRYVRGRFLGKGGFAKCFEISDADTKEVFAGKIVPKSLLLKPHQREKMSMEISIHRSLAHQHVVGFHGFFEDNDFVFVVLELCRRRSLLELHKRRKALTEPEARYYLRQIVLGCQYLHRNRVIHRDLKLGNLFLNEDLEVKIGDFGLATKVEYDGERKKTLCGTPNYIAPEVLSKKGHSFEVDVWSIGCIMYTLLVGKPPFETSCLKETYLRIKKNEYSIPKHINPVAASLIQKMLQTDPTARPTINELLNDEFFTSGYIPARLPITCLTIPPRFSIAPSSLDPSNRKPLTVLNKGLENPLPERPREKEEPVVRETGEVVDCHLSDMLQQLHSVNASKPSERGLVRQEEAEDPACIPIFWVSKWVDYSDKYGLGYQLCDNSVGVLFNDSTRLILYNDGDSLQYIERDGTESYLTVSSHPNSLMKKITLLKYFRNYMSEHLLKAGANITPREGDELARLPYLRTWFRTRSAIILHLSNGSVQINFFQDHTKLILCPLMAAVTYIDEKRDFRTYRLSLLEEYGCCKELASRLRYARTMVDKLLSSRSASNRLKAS
T1 sequence (P53350 whole entry): as above
T2 sequence (Q9NYY3 whole entry): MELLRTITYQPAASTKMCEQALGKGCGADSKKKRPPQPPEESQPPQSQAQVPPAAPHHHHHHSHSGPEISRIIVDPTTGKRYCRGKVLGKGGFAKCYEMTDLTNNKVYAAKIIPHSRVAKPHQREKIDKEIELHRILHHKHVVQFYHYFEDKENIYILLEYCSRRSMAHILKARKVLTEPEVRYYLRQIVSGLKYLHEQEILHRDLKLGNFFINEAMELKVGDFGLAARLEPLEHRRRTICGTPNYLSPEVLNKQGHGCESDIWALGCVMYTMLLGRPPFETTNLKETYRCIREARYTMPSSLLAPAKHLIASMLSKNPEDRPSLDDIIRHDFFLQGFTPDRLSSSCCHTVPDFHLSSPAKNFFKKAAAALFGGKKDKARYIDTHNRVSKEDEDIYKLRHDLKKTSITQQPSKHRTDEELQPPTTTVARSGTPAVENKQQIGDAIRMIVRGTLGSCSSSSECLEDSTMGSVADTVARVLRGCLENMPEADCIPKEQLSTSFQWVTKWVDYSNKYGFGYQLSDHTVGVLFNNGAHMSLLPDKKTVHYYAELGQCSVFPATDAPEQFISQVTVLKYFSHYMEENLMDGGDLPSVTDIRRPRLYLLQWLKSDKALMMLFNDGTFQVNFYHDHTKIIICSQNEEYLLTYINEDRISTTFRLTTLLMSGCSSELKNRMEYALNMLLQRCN
T4 sequence (Q9H4B4 whole entry): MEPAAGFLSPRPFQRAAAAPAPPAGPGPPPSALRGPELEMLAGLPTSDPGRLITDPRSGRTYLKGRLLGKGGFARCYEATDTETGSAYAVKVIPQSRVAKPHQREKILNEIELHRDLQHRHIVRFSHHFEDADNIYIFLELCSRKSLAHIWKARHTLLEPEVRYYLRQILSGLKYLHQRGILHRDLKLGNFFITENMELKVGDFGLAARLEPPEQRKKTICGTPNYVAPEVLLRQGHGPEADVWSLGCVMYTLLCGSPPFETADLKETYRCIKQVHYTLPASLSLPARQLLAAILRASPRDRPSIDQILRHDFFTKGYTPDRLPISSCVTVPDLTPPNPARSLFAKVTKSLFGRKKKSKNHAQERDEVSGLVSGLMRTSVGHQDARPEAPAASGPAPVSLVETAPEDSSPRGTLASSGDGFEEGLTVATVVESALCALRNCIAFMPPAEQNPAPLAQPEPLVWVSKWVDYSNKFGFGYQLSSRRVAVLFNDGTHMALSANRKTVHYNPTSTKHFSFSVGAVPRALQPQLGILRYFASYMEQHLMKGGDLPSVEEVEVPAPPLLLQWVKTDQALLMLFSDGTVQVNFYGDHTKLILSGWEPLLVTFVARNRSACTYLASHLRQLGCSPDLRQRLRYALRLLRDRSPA

In assay [1], `NC(=O)c1nn(-c2ccnc(NC3CCOCC3)c2)cc1OCc1ccccc1` [Compound 8a] yielded a half-maximal inhibitory concentration (IC50) above 10000 nM.

For `NC(=O)c1nn(-c2ccnc(NC3CCNCC3)c2)cc1OCc1ccccc1` [Compound 9a], in assay [1], the IC50 is above 10000 nM. The same measure, in the same setting: for `NC(=O)c1nn(-c2ccnc(N[C@H]3CCNC3)c2)cc1OCc1ccccc1` [Compound 10a] the value was above 10000 nM. Molecule `NC(=O)c1nn(-c2ccnc(Nc3ccccc3)c2)cc1OCc1ccccc1` [Compound 13a] showed an IC50 in assay [1] of 9890 nM. Consider `NC(=O)c1nn(-c2ccnc(Nc3ccccc3)c2)cc1OCc1ccccc1C(F)(F)F` [Compound 13b], for which, in assay [1], the IC50 came to 847 nM. On the same count and under the same terms, for `COc1ccccc1Nc1cc(-n2cc(OCc3ccccc3)c(C(N)=O)n2)ccn1` [Compound 14a] the value was 1020 nM; for `COc1ccccc1Nc1cc(-n2cc(OCc3ccccc3C(F)(F)F)c(C(N)=O)n2)ccn1` [Compound 14b], 1310 nM. In the case of `NC(=O)c1nn(-c2ccnc(Nc3ccccc3)c2)cc1OCc1ccc(CO)cc1Cl` [Compound 15, 4-((2-chloro-4-(hydroxymethyl)benzyl)oxy)-1-(2-(phenylamino)pyridin-4-yl)-1H-pyrazole-3-carboxamide], the “activity against PLK2” value in assay [2] is “no significant activity”. 219 nM corresponded to half-maximal inhibition in assay [1] (IC50). Moreover, in assay [3], the IC50 was 28 nM and the “Activity pIC50” value is 7.5528. Also, the inhibition at 10 µM in assay [4] was 97%. Moreover, the “activity against other protein kinases” value in assay [5] is recorded as “no significant activity”. Besides, the “activity against PLK3” value in assay [6] is listed as “no significant activity”.

On to `COc1ccccc1Nc1cc(-n2cc(OCc3ccc(CO)cc3Cl)c(C(N)=O)n2)ccn1` [Compound 17, 4-((2-chloro-4-(hydroxymethyl)benzyl)oxy)-1-(2-((2-methoxyphenyl)amino)pyridin-4-yl)-1H-pyrazole-3-carboxamide], for which, in assay [1], inhibition was half-maximal at 312 nM (IC50). Moreover, in assay [3], the IC50 is 25 nM and the “Activity pIC50” value was 7.6021. With `CN1CCN(c2ccc(C(=O)Nc3n[nH]c4c3CN(C(=O)Cc3cccs3)C4)cc2)CC1` [PHA-680626], the “PLK1 IC50s” value in assay [7] is listed as “low nanomolar”. As for `CCOC(=O)c1nn(-c2ccnc(F)c2)cc1O` [compound 3], in assay [3], the half-inhibitory concentration (IC50) was 430 nM and the “Activity pIC50” value is 6.3665.

`O=Cc1n[nH]c2c1CCc1cnc(Nc3ccccc3)nc1-2` [compound 34]: the IC50 in assay [8] was 248 nM. Moreover, in assay [8] (pIC50 = −log IC50), the “Activity pIC50” value is recorded as 6.6055.
